ChEMBL document CHEMBL4351029, “Design and evaluation of pyrazolopyrimidines as KCNQ channel modulators” (Bioorg Med Chem Lett, 2019)

Assays:
[1] = target: Voltage-gated potassium channel, KQT; KCNQ2(Kv7.2)/KCNQ3(Kv7.3) (Homo sapiens, UniProt O43525+O43526); assay: Agonist activity at human KCNQ2/3 expressed in HEK293 cells by FLIPR based thallium influx assay; format: cell-based
[2] = target: Voltage-gated potassium channel, KQT; KCNQ2(Kv7.2)/KCNQ3(Kv7.3) (Homo sapiens) (UniProt O43526+O43525); assay: Agonist activity at human KCNQ2/3 expressed in HEK293 cells by FLIPR based thallium influx assay relative to retigabine; format: cell-based
[3] = system: Rattus norvegicus; assay: Antiallodynic activity in rat model of capsaicin-induced mechanical hyperalgesia assessed as increase in paw withdrawal threshold at 100 mg/kg, ip administered 30 mins before capsaicin addition relative to control; format: functional
[4] = Plasma clearance in rat at 1 mg/kg. iv; format: ADME, organism-based
[5] = Half life in rat at 1 mg/kg, iv; format: ADME, organism-based; settings: in vivo
[6] = Oral bioavailability in rat at 1 mg/kg; format: ADME, organism-based; settings: in vivo
[7] = AUC in rat at 1 mg/kg, po; format: ADME, organism-based; settings: in vivo
[8] = Ratio of drug level in brain to plasma in rat; format: ADME; settings: read-out: BPR
[9] = system: Rattus norvegicus; assay: Antiallodynic activity in rat model of capsaicin-induced mechanical hyperalgesia assessed as increase in paw withdrawal threshold at 3 mg/kg, ip administered 30 mins before capsaicin addition relative to control; format: functional
[10] = system: Rattus norvegicus; assay: Antiallodynic activity in rat model of capsaicin-induced mechanical hyperalgesia assessed as increase in paw withdrawal threshold at 10 mg/kg, ip administered 30 mins before capsaicin addition relative to control; format: functional
[11] = system: Rattus norvegicus; assay: Antiallodynic activity in rat model of capsaicin-induced mechanical hyperalgesia assessed as increase in paw withdrawal threshold at 30 mg/kg, ip administered 30 mins before capsaicin addition relative to control; format: functional
[12] = system: Rattus norvegicus; assay: Antiallodynic activity in ip dosed rat model of capsaicin-induced mechanical hyperalgesia assessed as increase in paw withdrawal threshold administered 30 mins before capsaicin addition; format: functional, organism-based

Sequence of Voltage-gated potassium channel, KQT; KCNQ2(Kv7.2)/KCNQ3(Kv7.3) (O43526 whole entry): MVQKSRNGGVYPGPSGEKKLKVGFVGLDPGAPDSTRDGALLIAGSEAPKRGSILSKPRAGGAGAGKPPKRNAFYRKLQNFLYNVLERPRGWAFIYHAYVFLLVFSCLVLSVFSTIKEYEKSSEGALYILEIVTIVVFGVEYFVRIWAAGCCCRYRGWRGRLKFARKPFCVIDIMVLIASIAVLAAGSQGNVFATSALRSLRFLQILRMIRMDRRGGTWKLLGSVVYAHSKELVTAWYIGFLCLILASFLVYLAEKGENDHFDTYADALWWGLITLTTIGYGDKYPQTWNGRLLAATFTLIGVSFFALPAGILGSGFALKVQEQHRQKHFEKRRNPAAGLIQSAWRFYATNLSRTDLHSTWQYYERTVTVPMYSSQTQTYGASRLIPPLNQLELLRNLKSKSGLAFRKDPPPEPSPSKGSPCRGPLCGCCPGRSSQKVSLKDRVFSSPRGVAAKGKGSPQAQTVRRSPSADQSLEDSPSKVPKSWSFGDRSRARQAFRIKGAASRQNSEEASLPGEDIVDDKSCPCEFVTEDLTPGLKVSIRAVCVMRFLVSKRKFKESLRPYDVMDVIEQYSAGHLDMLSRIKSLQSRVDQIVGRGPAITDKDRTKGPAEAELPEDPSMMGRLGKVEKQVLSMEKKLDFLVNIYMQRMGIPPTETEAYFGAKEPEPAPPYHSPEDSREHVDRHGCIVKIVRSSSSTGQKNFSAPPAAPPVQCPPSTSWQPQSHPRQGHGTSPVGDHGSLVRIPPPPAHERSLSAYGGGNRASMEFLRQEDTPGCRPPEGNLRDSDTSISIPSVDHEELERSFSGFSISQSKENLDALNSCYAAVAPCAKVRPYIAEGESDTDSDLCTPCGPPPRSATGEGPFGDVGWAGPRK
Sequence of Voltage-gated potassium channel, KQT; KCNQ2(Kv7.2)/KCNQ3(Kv7.3) (O43525 whole entry): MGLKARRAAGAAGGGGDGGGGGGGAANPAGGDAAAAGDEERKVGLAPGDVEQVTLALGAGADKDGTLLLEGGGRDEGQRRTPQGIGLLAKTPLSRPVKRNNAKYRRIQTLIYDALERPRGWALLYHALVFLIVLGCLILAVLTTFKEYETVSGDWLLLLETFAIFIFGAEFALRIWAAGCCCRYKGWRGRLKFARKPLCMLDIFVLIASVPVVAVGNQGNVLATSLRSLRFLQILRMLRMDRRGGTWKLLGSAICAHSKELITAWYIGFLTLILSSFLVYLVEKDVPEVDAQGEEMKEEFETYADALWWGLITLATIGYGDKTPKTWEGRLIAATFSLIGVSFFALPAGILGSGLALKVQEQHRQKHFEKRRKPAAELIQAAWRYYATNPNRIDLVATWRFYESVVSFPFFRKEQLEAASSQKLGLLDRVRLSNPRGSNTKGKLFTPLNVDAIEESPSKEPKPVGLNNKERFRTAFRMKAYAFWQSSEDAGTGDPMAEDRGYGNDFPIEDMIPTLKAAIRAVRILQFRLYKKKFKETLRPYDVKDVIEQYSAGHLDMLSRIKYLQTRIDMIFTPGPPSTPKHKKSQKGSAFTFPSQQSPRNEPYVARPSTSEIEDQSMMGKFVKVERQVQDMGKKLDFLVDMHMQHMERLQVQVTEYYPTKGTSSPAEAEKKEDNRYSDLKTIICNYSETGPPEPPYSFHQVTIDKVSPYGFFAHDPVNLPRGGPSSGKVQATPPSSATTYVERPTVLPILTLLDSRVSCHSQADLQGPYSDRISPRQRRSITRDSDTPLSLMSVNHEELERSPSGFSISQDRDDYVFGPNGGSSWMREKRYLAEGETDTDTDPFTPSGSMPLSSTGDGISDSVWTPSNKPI

SMILES | EC50 [1] [nM] | Emax [2] [%] | also measured
CC(C)(C)CC(=O)Nc1nn2cccnc2c1-c1ccc(C(F)(F)F)cc1 | 140 | 113 | 
CC(C)(C)CC(=O)Nc1nn2cccnc2c1-c1ccccc1 |  | 26 | 
O=C(CCC1CCCC1)Nc1nn2cccnc2c1-c1ccc(OC(F)(F)F)cc1 | 310 |  | 
O=C(Nc1nn2cccnc2c1-c1ccc(F)cc1)C1CCCC1 | > 32000 | 20 | 
Cc1cc(-c2c(NC(=O)CCC3CCCC3)nn3cccnc23)ccc1F | 180 | 169 | 
Cc1cc(C)n2nc(NC(=O)CC3CCCC3)c(-c3ccc(F)c(C)c3)c2n1 | 70 | 165 | 
O=C(CC1CCCC1)Nc1nn2cccnc2c1-c1ccc(C(F)(F)F)cc1 |  | 28 | 
NCC1(CC(=O)O)CCCCC1 [GABAPENTIN] |  |  | Activity [3]: 70%
CC(C)(C)CC(=O)Nc1nn2cccnc2c1-c1ccc(OC(F)(F)F)cc1 | 410 |  | clearance [4]: 13.3 mL/min/kg; half-life [5]: 1.9 h; bioavailability [6]: 56%; AUC [7]: 706 ng·h/mL; Kp [8]: 3.8; Activity [9]: 10%; Activity [10]: 26%; Activity [11]: 52%; Activity [12]: Dose-dependent effect
O=C(CC1CCCC1)Nc1nn2cccnc2c1-c1ccc(OC(F)(F)F)cc1 | 190 | 88 | 
O=C(Nc1nn2cccnc2c1-c1ccccc1)C1CCCCC1 |  | 8 | 
O=C(CCC1CCCCC1)Nc1nn2cccnc2c1-c1ccccc1 | 130 |  | 
CC(C)(C)c1ccnc2c(NC(=O)Cc3cc(F)cc(F)c3)cnn12 | 910 | 149 | 
CCOC(=O)Nc1ccc(NCc2ccc(F)cc2)nc1N [FLUPIRTINE] | 560 | 112 | 
O=C(CC1CCCC1)Nc1nn2cccnc2c1-c1ccc(F)cc1 | 1000 | 100 | 
Cc1cc(C)n2nc(NC(=O)CCC3CCCC3)c(-c3ccc(F)c(C)c3)c2n1 | 70 | 205 | 
O=C(CC1CCCCC1)Nc1nn2cccnc2c1-c1ccccc1 | 290 | 133 | 
O=C(CCC1CCCC1)Nc1nn2cccnc2c1-c1ccc(C(F)(F)F)cc1 | 50 |  | 
Cc1cnc2c(-c3ccc(F)c(C)c3)c(NC(=O)CCC3CCCC3)nn2c1 | 80 |  | 
CC(C)(C)CC(=O)Nc1nn2cccnc2c1-c1ccc(F)cc1 | 6800 |  | 
CC(C)(C)CC(=O)Nc1nn2c(C(C)(C)C)ccnc2c1-c1ccc(OC(F)(F)F)cc1 | > 32000 |  | 
Cc1cc(-c2c(NC(=O)CC(C)(C)C)nn3cccnc23)ccc1F | 2310 | 135 | 
Cc1cc(C)n2nc(NC(=O)CC(C)(C)C)c(-c3ccc(F)c(C)c3)c2n1 | 50 |  | 
O=C(CCC1CCCC1)Nc1nn2cccnc2c1-c1ccc(F)cc1 | 140 |  | 
Cc1cnc2c(-c3ccc(F)c(C)c3)c(NC(=O)CC3CCCC3)nn2c1 | 140 | 168 | 
Cc1cc(-c2c(NC(=O)CC3CCCC3)nn3cccnc23)ccc1F | 1170 | 139 | 
Cc1cnc2c(-c3ccc(F)c(C)c3)c(NC(=O)CC(C)(C)C)nn2c1 | 590 | 159 | 
CCOC(=O)Nc1ccc(NCc2ccc(F)cc2)cc1N [EZOGABINE] | 4380 | 99 | 
